# Experimental data reported in patent publication US20210114983A1, “Cathepsin C inhibitors” (National Institute of Biological Sciences, Beijing, priority 2018, published 2021).
# pIC50: −log10 of the molar value.
# Legend:
# rhCatC (Cathepsin C) = rhCatC (Cathepsin C) (Homo sapiens, UniProt P53634); assay: In Vitro CatC Enzyme Assay; type: biochemical; settings: read-out: Cat C Enzy (Cathepsin C inhibitory activity, IC50)
# Method: In Vitro CatC Enzyme Assay
# The CatC enzyme assay was performed in black 384-well plate. Firstly, rhCatC (440 nM) was activated by rhCatL (300 nM) in activation buffer (25 mM MES, 5 mM DTT, pH 6.0) at room temperature for 2 h and then activated rhCatC was diluted to 4.4 nM in assay buffer (25 mM MES, 50 mM NaCl, 5 mM DTT, 0.01% (v/v) Triton X100, pH 6.0), 14 μL activated rhCatC and 1 μL compound in 10% DMSO or 10% DMSO were incubated at room temperature for 3 h, and 5 μL substrate (Gly-Phe-AFC) was added to final concentration of 100 μM. After 60 min reaction, the product of the reaction was measured in the Enspire plate reader using Ex λ400 nm and Em λ505 nm for AFC. A standard irreversible CatC inhibitor 10 by AstraZeneca (J. Med. Chem. 2014, 57, 2357-2367) was used as an inhibitor control in the assay.
# CatC [1] = target: T1, CatC (Rattus norvegicus, UniProt P80067); assay: In vivo study, CatC activity in rat bone marrow lysates; settings: dose dependent
# T1 construct: bone marrow cells were immediately extracted from femurs and tibias; from tissue; host or cells: Sprague Dawley rat bone marrow cell lysate
# T1 sequence (P80067 25-134 limits assumed): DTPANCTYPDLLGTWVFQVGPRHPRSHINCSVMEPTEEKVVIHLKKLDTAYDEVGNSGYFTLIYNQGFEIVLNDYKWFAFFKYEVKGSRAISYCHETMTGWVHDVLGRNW
# T1 sequence (P80067 230-393 limits assumed): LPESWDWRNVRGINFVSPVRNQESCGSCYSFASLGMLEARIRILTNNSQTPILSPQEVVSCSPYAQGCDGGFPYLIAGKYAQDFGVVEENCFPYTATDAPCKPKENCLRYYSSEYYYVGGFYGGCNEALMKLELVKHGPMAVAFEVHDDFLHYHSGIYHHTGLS
# T1 sequence (P80067 394-462 limits assumed): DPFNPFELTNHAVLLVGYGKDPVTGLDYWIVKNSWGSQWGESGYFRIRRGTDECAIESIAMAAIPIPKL
# Method: (§1) C57BL/6 mice (20-25 g) were randomly divided into 4 groups (n=10) and kept at 5 animals per cage. Compound 31 was administered orally twice daily at 6.7, 20, 60 mg kg-1 day-1 for 6 days. The matched vehicle controls (0.5% Methocel™, 0.1% Tween 80 in 100 mM citrate buffer, pH 3) were also administered twice daily for 6 days. Mice were weighed and the dose adjusted accordingly on each day. Sprague Dawley (280-300 g) were conducted by intraperitoneal injection twice daily at 1, 5, 20 mg kg-1 day-1 for 8 days. Blood was sampled through eye puncture at 14 h intervals after the end of the administration. Then mice were terminated and bone marrow cells were immediately extracted from femurs and tibias using ice cold RPMI 1640 medium. Blood cells and bone marrow cells were lysed according to the protocols previously described 8 with some modifications. […]
# (§2) The analysis was performed as previously described. […] Synthetic peptide substrates (Gly-Phe-AFC(SMBiochemicals) for CatC, methoxysuccinyl-Ala-Ala-Pro-Val-AMC (Sigma) for NE, minobenzoyl-Val-Ala-Asp-Cys-Ala-Asp-Gin-ethylenediamine 2,4-dinitrophenyl (Peptide Synthetics) for Pr3, and N-succinyl-Ala-Ala-Pro-Phe-ONA (Sigma) for CatG) were added before plates were read at fluorescence or absorbance. Assay kinetics was monitored for up to 90 min. Data were analyzed using GraphPad Prism (GraphPad Software, Inc., San Diego, Calif., USA).
# NE [2] = assay: In vivo study, NE activity in rat bone marrow lysates; settings: dose dependent
# Method: as §1, §2
# CatG [3] = assay: In vivo study, CatG activity in rat bone marrow lysates; settings: dose dependent
# Method: as §1, §2
# CatC [4] = target: T2, CatC (Mus musculus, UniProt P97821); assay: In vivo study, CatC activity in mice bone marrow and blood lysates; settings: dose dependent
# T2 construct: Blood cells and bone marrow cells were lysed; from tissue; host or cells: C57BL/6 mouse bone marrow and blood cell lysates
# T2 sequence (P97821 25-134 limits assumed): as the sequence (P80067 25-134 limits assumed) above, with H23S, P24S, H27D, P35A, I42V, V54L, Y59H, K86R, S88H, R89T counted along it
# T2 sequence (P97821 231-393 limits assumed): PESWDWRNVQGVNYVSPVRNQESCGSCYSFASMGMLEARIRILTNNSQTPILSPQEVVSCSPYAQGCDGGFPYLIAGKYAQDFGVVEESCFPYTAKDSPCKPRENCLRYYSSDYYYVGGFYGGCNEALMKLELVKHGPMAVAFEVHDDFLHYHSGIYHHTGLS
# T2 sequence (P97821 394-462 limits assumed): as the sequence (P80067 394-462 limits assumed) above, with K20R, L26I, D27E, V31I, Q38N, M61V counted along it
# Method: as §1, §2
# NE [5] = assay: In vivo study, NE activity in mice bone marrow and blood lysates; settings: dose dependent
# Method: as §1, §2
# Pr3 = assay: In vivo study, Pr3 activity in mice bone marrow and blood lysates; settings: dose dependent
# Method: as §1, §2
# CatG [6] = assay: In vivo study, CatG activity in mice bone marrow and blood lysates; settings: dose dependent
# Method: as §1, §2
# acute pancreatitis = assay: Caerulein-induced acute pancreatitis; type: in vivo, C57BL/6 mice; settings: orally twice daily at 20 mg/kg for 6 days
# Method: Induction of Pancreatitis. The acute pancreatitis was induced by hourly intraperitoneal injections of caerulein (50 μg/kg/body weight) for up to 8 h, 36 C57BL/6 mice (20-25 g) were randomly divided into 4 groups (n=5). Compound 28 were administered orally twice daily at 20 mg/kg for 6 days. The matched vehicle controls (0.5% Methocel™, 0.1% Tween 80 in 100 mM citrate buffer, pH 3) were also administered twice daily for 6 days. On the 6th day, mice were induced pancreatitis after compound administration and after the last caerulein injection, mice were administered compound. The sham-treated group was performed with the same as vehicle controls except that saline was administered instead of caerulein. Mice were killed at 1 h after the last caerulein injection. Tissue was harvested immediately after sacrificing the animals. A portion of pancreas samples were frozen in liquid nitrogen for preparation of homogenate. For histology, pancreas was fixed in 4.5% formalin for paraffin embedding and stained with hematoxylin and eosin. Serum samples were prepared and stored at −20 C. […] Compound 28 were administered orally twice daily at 20 mg/kg. The activity inhibition data of the compound-treated groups are shown as the percentage activity of a sham mean (set to 100% activity). Values are means±SEM. […]
# Chain of rhCatC (Cathepsin C) (P53634 25-134 limits assumed): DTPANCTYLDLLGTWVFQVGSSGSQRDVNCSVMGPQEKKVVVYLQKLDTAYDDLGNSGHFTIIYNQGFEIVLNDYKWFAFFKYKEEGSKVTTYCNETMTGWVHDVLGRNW
# Chain of rhCatC (Cathepsin C) (P53634 231-394 limits assumed): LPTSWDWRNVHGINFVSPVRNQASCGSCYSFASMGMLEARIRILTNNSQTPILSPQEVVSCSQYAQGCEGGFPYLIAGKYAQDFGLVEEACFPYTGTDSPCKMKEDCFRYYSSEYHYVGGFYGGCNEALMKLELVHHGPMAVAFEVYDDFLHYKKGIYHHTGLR
# Chain of rhCatC (Cathepsin C) (P53634 395-463 limits assumed): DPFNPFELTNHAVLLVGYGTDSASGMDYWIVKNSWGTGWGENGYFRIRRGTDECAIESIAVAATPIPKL
structure (smiles),measurement,setting,value
"C=CC(=O)Nc1cc(Oc2nc(Nc3ccc(N4CCN(C)CC4)cc3OC)ccc2N2CCCCC2)ccc1C [Compound 28, N-(5-((6-((2-methoxy-4-(4-methylpiperazin-1-yl)phenyl)amino)-3-(piperidin-1-yl)pyridin-2-yl)oxy)-2-methylphenyl)acrylamide]",pIC50,rhCatC (Cathepsin C),6.52 to 8.52
same,activation of CatC,CatC [1],inhibited the activation
same,activation of NE,NE [2],inhibited the activation
same,activation of CatG,CatG [3],inhibited the activation
same,activation of CatC,CatC [4]; mice blood,inhibited the activation
same,activation of CatC,CatC [4]; mice bone marrow,inhibited the activation
same,activation of NE,NE [5]; mice blood,inhibited the activation
same,activation of NE,NE [5]; mice bone marrow,inhibited the activation
same,activation of Pr3,Pr3; mice blood,inhibited the activation
same,activation of Pr3,Pr3; mice bone marrow,inhibited the activation
same,activation of CatG,CatG [6]; mice blood,inhibited the activation
same,activation of CatG,CatG [6]; mice bone marrow,inhibited the activation
same,severity of acute pancreatitis,acute pancreatitis,reduced the severity of acute pancreatitis
